# Data: ChEMBL document CHEMBL2073839, “Heterologous expression and functional characterization of a mouse renal organic anion transporter in mammalian cells” (J Biol Chem, 1999)
# What was measured:
# Format in all cases: functional, cell-based
# [1] = biological target: T1, Solute carrier family 22 member 6 (Mus musculus, UniProt Q8VC69); assay: TP_TRANSPORTER: inhibition of PAH uptake (PAH: 20 uM, Semustine: 300 uM) in OAT-expressing COS-7 cells; conditions: monkey, cos-7, 300 µM
# T1 sequence (Q8VC69 whole entry): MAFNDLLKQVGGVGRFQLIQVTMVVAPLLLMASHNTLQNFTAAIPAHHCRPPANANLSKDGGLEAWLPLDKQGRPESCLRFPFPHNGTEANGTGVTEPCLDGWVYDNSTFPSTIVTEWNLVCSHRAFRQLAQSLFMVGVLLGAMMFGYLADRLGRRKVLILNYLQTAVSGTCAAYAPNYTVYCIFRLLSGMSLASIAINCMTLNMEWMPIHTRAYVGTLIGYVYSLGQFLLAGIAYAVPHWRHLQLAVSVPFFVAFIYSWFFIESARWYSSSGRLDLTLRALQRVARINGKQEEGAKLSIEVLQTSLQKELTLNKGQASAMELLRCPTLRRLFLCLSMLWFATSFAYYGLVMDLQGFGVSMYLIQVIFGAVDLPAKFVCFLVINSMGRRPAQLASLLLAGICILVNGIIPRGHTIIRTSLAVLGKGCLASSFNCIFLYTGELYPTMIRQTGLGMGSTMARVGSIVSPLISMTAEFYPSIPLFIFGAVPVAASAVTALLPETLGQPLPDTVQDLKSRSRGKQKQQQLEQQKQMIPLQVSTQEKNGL
# [2] = biological target: T1, Solute carrier family 22 member 6; assay: TP_TRANSPORTER: inhibition of PAH uptake (PAH: 20 uM, Pantothenic acid: 1000 uM) in OAT-expressing COS-7 cells; conditions: monkey, cos-7, 1000 µM
# [3] = biological target: T1, Solute carrier family 22 member 6; assay: TP_TRANSPORTER: inhibition of PAH uptake (PAH: 20 uM, Folic acid: 1000 uM) in OAT-expressing COS-7 cells; conditions: monkey, cos-7, 1000 µM
# [4] = biological target: T1, Solute carrier family 22 member 6; assay: TP_TRANSPORTER: inhibition of PAH uptake (PAH: 20 uM, Indomethacin: 1000 uM) in OAT-expressing COS-7 cells; conditions: monkey, cos-7, 1000 µM
# [5] = biological target: T1, Solute carrier family 22 member 6; assay: TP_TRANSPORTER: inhibition of PAH uptake (PAH: 20 uM, Enalapril: 1000 uM) in OAT-expressing COS-7 cells; conditions: monkey, cos-7, 1000 µM
# [6] = biological target: T1, Solute carrier family 22 member 6; assay: TP_TRANSPORTER: inhibition of PAH uptake (PAH: 20 uM, Diclofenac: 1000 uM) in OAT-expressing COS-7 cells; conditions: monkey, cos-7, 1000 µM
# [7] = biological target: T1, Solute carrier family 22 member 6; assay: TP_TRANSPORTER: inhibition of PAH uptake (PAH: 20 uM, Sulindac: 1000 uM) in OAT-expressing COS-7 cells; conditions: monkey, cos-7, 1000 µM
# [8] = biological target: T1, Solute carrier family 22 member 6; assay: TP_TRANSPORTER: inhibition of PAH uptake (PAH: 20 uM, alpha-KG: 1000 uM) in OAT-expressing COS-7 cells; conditions: monkey, cos-7, 1000 µM
# [9] = biological target: T1, Solute carrier family 22 member 6; assay: TP_TRANSPORTER: inhibition of PAH uptake (PAH: 20 uM, Riboflavin: 1000 uM) in OAT-expressing COS-7 cells; conditions: monkey, cos-7, 1000 µM
# [10] = biological target: T1, Solute carrier family 22 member 6; assay: TP_TRANSPORTER: inhibition of PAH uptake (PAH: 20 uM, Captopril: 1000 uM) in OAT-expressing COS-7 cells; conditions: monkey, cos-7, 1000 µM
# [11] = biological target: T1, Solute carrier family 22 member 6; assay: TP_TRANSPORTER: inhibition of PAH uptake (PAH: 20 uM, Carprofen: 1000 uM) in OAT-expressing COS-7 cells; conditions: monkey, cos-7, 1000 µM
compound,measurement,setting,value
CC1CCC(NC(=O)N(CCCl)N=O)CC1 (stereo unspecified) [SEMUSTINE],Activity,[1],inhibitor [(at a rough estimate) 35 % of control]
CC(C)(CO)[C@@H](O)C(=O)NCCC(=O)O [PANTOTHENIC ACID],Activity,[2],inhibitor [(at a rough estimate) 60 % of control]
Nc1nc2ncc(CNc3ccc(C(=O)N[C@@H](CCC(=O)O)C(=O)O)cc3)nc2c(=O)[nH]1 [FOLIC ACID],Activity,[3],inhibitor [(at a rough estimate) 55 % of control]
COc1ccc2c(c1)c(CC(=O)O)c(C)n2C(=O)c1ccc(Cl)cc1 [INDOMETHACIN],Activity,[4],inhibitor [(at a rough estimate) 5 % of control]
CCOC(=O)[C@H](CCc1ccccc1)N[C@@H](C)C(=O)N1CCC[C@H]1C(=O)O [ENALAPRIL],Activity,[5],inhibitor [(at a rough estimate) 45 % of control]
O=C(O)Cc1ccccc1Nc1c(Cl)cccc1Cl [DICLOFENAC],Activity,[6],inhibitor [(at a rough estimate) 5 % of control]
CC1=C(CC(=O)O)c2cc(F)ccc2/C1=C\c1ccc([S+](C)[O-])cc1 (stereo unspecified) [SULINDAC],Activity,[7],inhibitor [(at a rough estimate) 5 % of control]
O=C(O)CCC(=O)C(=O)O [ALPHA-KETOGLUTARIC ACID],Activity,[8],inhibitor [(at a rough estimate) 10 % of control]
Cc1cc2nc3c(=O)[nH]c(=O)nc-3n(C[C@H](O)[C@H](O)[C@H](O)CO)c2cc1C [RIBOFLAVIN],Activity,[9],inhibitor [(at a rough estimate) 40 % of control]
C[C@H](CS)C(=O)N1CCC[C@H]1C(=O)O [CAPTOPRIL],Activity,[10],inhibitor [(at a rough estimate) 50 % of control]
CC(C(=O)O)c1ccc2c(c1)[nH]c1ccc(Cl)cc12 (stereo unspecified) [CARPROFEN],Activity,[11],inhibitor [(at a rough estimate) 5 % of control]
